Source: patent US12310975B2, “Modulators of BCL6 proteolysis and associated methods of use” (Arvinas Operations, Inc., priority 2019, dated 2025)

What was measured:
BCL6 [1] = target: T1, BCL6 (Homo sapiens (Human), UniProt P41182); assay: BCL6 TR-FRET assay (BCL6-Avitag-Biotin / BCoR-Cy5 peptide); assay type: binding
Outline: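 TR-FRET displacement assay: biotinylated His-SUMO-BCL6-Avitag (2 nM) pre-incubated 30 min at room temperature with compound (12-point 3-fold titration), then BCoR-Cy5 peptide (100 nM) and Eu-streptavidin (2 nM) added. Buffer: 50 mM HEPES pH 7.5, 125 mM NaCl, 0.01% Triton X, glutathione or DTT, 0.03% BSA. Read after 2 h.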

BCL6 [2] = target: T1, BCL6; assay: Immunofluorescence high content imaging of BCL6 degradation in T47D cells; assay type: cell-based; conditions: for Dmax: T47D; for DC50: class symbols A-D, read-out: EC50 (nM)*
Outline: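 T47D, 3 d compound exposure, 11-pt 3-fold series, top 0.1 or 1 μM final. Fix 4% PFA, Triton permeabilize, anti-BCL6 primary overnight 4 °C, Alexa-488 secondary. High-content imaging 10×, 4 fields/well, top-hat smoothing.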

[3] = class symbols A-D, read-out: IC50 (nM)***

Row | Compound | EC50 (BCL6 [1]) [nM] | Dmax (BCL6 [2]) [%] | IC50 (BCL6 [1]; read-out: IC50) [nM] | further results
1 | CC(=O)COc1cc2cc(Nc3nc(N4CCC(CN5CC6(C5)CN(c5ccc7c(c5)C(=O)N(C5CCC(=O)NC5=O)C7=O)C6)CC4)ncc3Cl)ccc2n(C)c1=O (stereo not shown) [compound 165, 5-(6-((1-(5-chloro-4-((1-methyl-2-oxo-3-(2-oxopropoxy)-1,2-dihydroquinolin-6-yl)amino)pyrimidin-2-yl)piperidin-4-yl)methyl)-2,6-diazaspiro[3.3]heptan-2-yl)-2-(2,6-dioxopiperidin-3-yl)isoindoline-1,3-dione] | – | – | – | IC50 (BCL6 [1]; [3]): 10 to 50 nM; Dmax (BCL6 [2]; maximum, class symbols A-C): 50 to 70%; DC50 (BCL6 [2]): 10 to 50 nM
2 | CC(=O)COc1cc2cc(Nc3nc(N4CCN(CC5CCN(c6ccc7c(c6)C(=O)N(C6CCC(=O)NC6=O)C7=O)CC5)CC4)ncc3Cl)ccc2n(C)c1=O (stereo not shown) [compound 148, 5-(4-((4-(5-chloro-4-((1-methyl-2-oxo-3-(2-oxopropoxy)-1,2-dihydroquinolin-6-yl)amino)pyrimidin-2-yl)piperazin-1-yl)methyl)piperidin-1-yl)-2-(2,6-dioxopiperidin-3-yl)isoindoline-1,3-dione] | – | – | – | IC50 (BCL6 [1]; [3]): < 10 nM; Dmax (BCL6 [2]; maximum, class symbols A-C): 50 to 70%; DC50 (BCL6 [2]): 10 to 50 nM
3 | CNC(=O)COc1cc2cc(Nc3nc(N4CCC[C@H](COc5ccc6c(c5)C(=O)N(C5CCC(=O)NC5=O)C6=O)C4)ncc3Cl)ccc2n(C)c1=O (stereo partly drawn) [compound 237, 2-((6-((5-chloro-2-((3S)-3-(((2-(2,6-dioxopiperidin-3-yl)-1,3-dioxoisoindolin-5-yl)oxy)methyl)piperidin-1-yl)pyrimidin-4-yl)amino)-1-methyl-2-oxo-1,2-dihydroquinolin-3-yl)oxy)-N-methylacetamide] | 10 to 50 | < 50 | – | IC50 (BCL6 [2]): 10 to 50 nM
4 | CNC(=O)COc1cc2cc(Nc3nc(N4CCN(C(C)(C)C5CCN(c6ccc7c(c6)CN(C6CCC(=O)NC6=O)C7=O)CC5)CC4)ncc3Cl)ccc2n(C)c1=O (stereo not shown) [compound 270, 2-{[6-({5-chloro-2-[4-(2-{1-[2-(2,6-dioxopiperidin-3-yl)-1-oxo-2,3-dihydro-1H-isoindol-5-yl]piperidin-4-yl}propan-2-yl)piperazin-1-yl]pyrimidin-4-yl}amino)-1-methyl-2-oxo-1,2-dihydroquinolin-3-yl]oxy}-N-methylacetamide] | 10 to 50 | ≥ 70 | – | IC50 (BCL6 [2]): < 10 nM
5 | CNC(=O)COc1cc2cc(Nc3nc(N4CCN(CC5CCN(c6ccc(C(=O)NC7CCC(=O)NC7=O)c(F)c6)CC5)CC4)ncc3Cl)ccc2n(C)c1=O (stereo not shown) [compound 233, 4-(4-((4-(5-chloro-4-((1-methyl-3-(2-(methylamino)-2-oxoethoxy)-2-oxo-1,2-dihydroquinolin-6-yl)amino)pyrimidin-2-yl)piperazin-1-yl)methyl)piperidin-1-yl)-N-(2,6-dioxopiperidin-3-yl)-2-fluorobenzamide] | > 100 | < 50 | – | IC50 (BCL6 [2]): ≥ 100 nM
6 | CNC(=O)COc1cc2cc(Nc3nc(N4CCC(N5CCC6(CCN(c7ccc8c(c7)C(=O)N(C7CCC(=O)NC7=O)C8=O)C6)CC5)CC4)ncc3Cl)ccc2n(C(C)C)c1=O (stereo not shown) [compound 515, 2-[(6-{[5-chloro-2-(4-{2-[2-(2,6-dioxopiperidin-3-yl)-1,3-dioxo-2,3-dihydro-1H-isoindol-5-yl]-2,8-diazaspiro[4.5]decan-8-yl}piperidin-1-yl)pyrimidin-4-yl]amino}-2-oxo-1-(propan-2-yl)-1,2-dihydroquinolin-3-yl)oxy]-N-methylacetamide] | – | ≥ 70 | 10 to 50 | –
7 | CNC(=O)COc1cc2cc(Nc3nc(N4CCC5(CC4)CC(OC4CCN(c6cccc(C(=O)NC7CCC(=O)NC7=O)c6F)CC4)C5)ncc3Cl)ccc2n(C(C)C)c1=O (stereo not shown) [compound 453, 3-[4-({7-[5-chloro-4-({3-[(methylcarbamoyl)methoxy]-2-oxo-1-(propan-2-yl)-1,2-dihydroquinolin-6-yl}amino)pyrimidin-2-yl]-7-azaspiro[3.5]nonan-2-yl}oxy)piperidin-1-yl]-N-(2,6-dioxopiperidin-3-yl)-2-fluorobenzamide] | – | ≥ 70 | 10 to 50 | –
8 | CC(=O)COc1cc2cc(Nc3nc(N4CCC(CCN5CCN(c6ccc7c(c6)C(=O)N(C6CCC(=O)NC6=O)C7=O)CC5)CC4)ncc3Cl)ccc2n(C)c1=O (stereo not shown) [compound 162, 5-(4-(2-(1-(5-chloro-4-((1-methyl-2-oxo-3-(2-oxopropoxy)-1,2-dihydroquinolin-6-yl)amino)pyrimidin-2-yl)piperidin-4-yl)ethyl)piperazin-1-yl)-2-(2,6-dioxopiperidin-3-yl)isoindoline-1,3-dione] | – | – | – | IC50 (BCL6 [1]; [3]): 10 to 50 nM; Dmax (BCL6 [2]; maximum, class symbols A-C): < 50%; DC50 (BCL6 [2]): 10 to 50 nM
9 | CN1C(=O)CCc2cc(Nc3nc(N4CCN(CC5CCN(c6ccc7c(c6)C(=O)N(C6CCC(=O)NC6=O)C7=O)CC5)CC4)ncc3Cl)ccc21 (stereo not shown) [compound 369, 5-{4-[(4-{5-chloro-4-[(1-methyl-2-oxo-1,2,3,4-tetrahydroquinolin-6-yl)amino]pyrimidin-2-yl}piperazin-1-yl)methyl]piperidin-1-yl}-2-(2,6-dioxopiperidin-3-yl)-2,3-dihydro-1H-isoindole-1,3-dione] | > 100 | – | – | IC50 (BCL6 [2]; T47D cells): ≥ 100 nM
10 | CNC(=O)COc1cc2cc(Nc3nc(N4CCN(CC5CC6(CCN(c7cccc8c7C(=O)N(C7CCC(=O)NC7=O)C8=O)CC6)C5)CC4)ncc3Cl)ccc2n(C(C)C)c1=O (stereo not shown) [compound 517, 2-{[6-({5-chloro-2-[4-({7-[2-(2,6-dioxopiperidin-3-yl)-1,3-dioxo-2,3-dihydro-1H-isoindol-4-yl]-7-azaspiro[3.5]nonan-2-yl}methyl)piperazin-1-yl]pyrimidin-4-yl}amino)-2-oxo-1-(propan-2-yl)-1,2-dihydroquinolin-3-yl]oxy}-N-methylacetamide] | – | ≥ 70 | < 10 | –
11 | CNC(=O)COc1cc2cc(Nc3nc(N4CCC(OC5CC6(CCN(c7cccc8c7CN(C7CCC(=O)NC7=O)C8=O)CC6)C5)CC4)ncc3Cl)ccc2n(C(C)C)c1=O (stereo not shown) [compound 446, 2-{[6-({5-chloro-2-[4-({7-[2-(2,6-dioxopiperidin-3-yl)-1-oxo-2,3-dihydro-1H-isoindol-4-yl]-7-azaspiro[3.5]nonan-2-yl}oxy)piperidin-1-yl]pyrimidin-4-yl}amino)-2-oxo-1-(propan-2-yl)-1,2-dihydroquinolin-3-yl]oxy}-N-methylacetamide] | – | ≥ 70 | < 10 | –
12 | CNC(=O)COc1cc2cc(Nc3nc(N4CCN(CC5CCC6(CC5)CN(c5ccc(F)c7c5C(=O)N(C5CCC(=O)NC5=O)C7=O)C6)CC4)ncc3Cl)ccc2n(C(C)C)c1=O (stereo not shown) [compound 541, 2-{[6-({5-chloro-2-[4-({2-[2-(2,6-dioxopiperidin-3-yl)-7-fluoro-1,3-dioxo-2,3-dihydro-1H-isoindol-4-yl]-2-azaspiro[3.5]nonan-7-yl}methyl)piperazin-1-yl]pyrimidin-4-yl}amino)-2-oxo-1-(propan-2-yl)-1,2-dihydroquinolin-3-yl]oxy}-N-methylacetamide] | – | ≥ 70 | < 10 | –
13 | CONC(=O)COc1cc2cc(Nc3nc(N4CCC(CN5CCN(c6ccc7c(c6)C(=O)N(C6CCC(=O)NC6=O)C7=O)CC5)CC4)ncc3Cl)ccc2n(C)c1=O (stereo not shown) [compound 209, 2-((6-((5-chloro-2-(4-((4-(2-(2,6-dioxopiperidin-3-yl)-1,3-dioxoisoindolin-5-yl)piperazin-1-yl)methyl)piperidin-1-yl)pyrimidin-4-yl)amino)-1-methyl-2-oxo-1,2-dihydroquinolin-3-yl)oxy)-N-methoxyacetamide] | > 100 | ≥ 70 | – | IC50 (BCL6 [2]): 10 to 50 nM
14 | CC(=O)c1cc2cc(Nc3nc(N4CCC(CN5CCN(c6ccc7c(c6)C(=O)N(C6CCC(=O)NC6=O)C7=O)CC5)CC4)ncc3Cl)ccc2n(C)c1=O (stereo not shown) [compound 206, 5-(4-((1-(4-((3-acetyl-1-methyl-2-oxo-1,2-dihydroquinolin-6-yl)amino)-5-chloropyrimidin-2-yl)piperidin-4-yl)methyl)piperazin-1-yl)-2-(2,6-dioxopiperidin-3-yl)isoindoline-1,3-dione] | > 100 | – | – | IC50 (BCL6 [2]): 50 to 100 nM
15 | CC(=O)COc1cc2cc(Nc3nc(N4CCN(C5CCCN(c6ccc7c(c6)C(=O)N(C6CCC(=O)NC6=O)C7=O)C5)CC4)ncc3Cl)ccc2n(C)c1=O (stereo not shown) [compound 161, 5-(3-(4-(5-chloro-4-((1-methyl-2-oxo-3-(2-oxopropoxy)-1,2-dihydroquinolin-6-yl)amino)pyrimidin-2-yl)piperazin-1-yl)piperidin-1-yl)-2-(2,6-dioxopiperidin-3-yl)isoindoline-1,3-dione] | – | – | – | IC50 (BCL6 [1]; [3]): 10 to 50 nM; Dmax (BCL6 [2]; maximum, class symbols A-C): < 50%; DC50 (BCL6 [2]): 10 to 50 nM
16 | CNC(=O)COc1cc2cc(Nc3nc(N4CCC(CN5CCC(c6cc(OC)cc(C(=O)NC7CCC(=O)NC7=O)c6F)CC5)CC4)ncc3Cl)ccc2n(C)c1=O (stereo not shown) [compound 467, 3-[1-({1-[5-chloro-4-({1-methyl-3-[(methylcarbamoyl)methoxy]-2-oxo-1,2-dihydroquinolin-6-yl}amino)pyrimidin-2-yl]piperidin-4-yl}methyl)piperidin-4-yl]-N-(2,6-dioxopiperidin-3-yl)-2-fluoro-5-methoxybenzamide] | – | < 50 | 10 to 50 | –
17 | CC(=O)COc1cc2cc(Nc3nc(N4CCC(CN5CCN(c6ccc7c(c6)C(=O)N(C6CCC(=O)NC6=O)C7=O)CC5)CC4)ncc3Cl)ccc2n(C)c1=O (stereo not shown) [compound 152, 5-(4-((1-(5-chloro-4-((1-methyl-2-oxo-3-(2-oxopropoxy)-1,2-dihydroquinolin-6-yl)amino)pyrimidin-2-yl)piperidin-4-yl)methyl)piperazin-1-yl)-2-(2,6-dioxopiperidin-3-yl)isoindoline-1,3-dione] | – | – | – | IC50 (BCL6 [1]; [3]): 50 to 100 nM; Dmax (BCL6 [2]; maximum, class symbols A-C): 50 to 70%; DC50 (BCL6 [2]): 10 to 50 nM
